Experimental findings from PubChem BioAssay AID1552 (Sanford-Burnham Center for Chemical Genomics, 2009) are described below.

The Kd is the free concentration of one partner at which half of the binding sites on the other are occupied at equilibrium, for simple one-to-one binding.

Activity calls are given as the source filed them. No rule for the calls is given here.

The target in the assay is Ubiquitin-conjugating enzyme E2 N (Homo sapiens) (UniProt P61088). Put plainly: UBE2N binders by NMR, biophysical, purified protein (AID 1552). The note with it: NMR binding to purified UBE2N.
Sequence of Ubiquitin-conjugating enzyme E2 N (Homo sapiens) (P61088 whole entry, looked up): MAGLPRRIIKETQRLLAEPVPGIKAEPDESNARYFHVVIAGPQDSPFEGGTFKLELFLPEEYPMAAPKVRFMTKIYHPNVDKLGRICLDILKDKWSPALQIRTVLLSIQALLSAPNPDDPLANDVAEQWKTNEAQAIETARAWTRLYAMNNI

Regarding `COc1cc(C)c2c(c1C=O)Oc1c(c(C)c(O)c3c1C(O)OC3=O)OC2=O` (configuration not stated), the Kd is > 4 mM (inactive).

Take `CO[C@H]1[C@@H](O)[C@@H](C)O[C@H](O[C@H]2CCC3(C)C4CCC5(C)[C@@H](C6=CC(=O)OC6)CC[C@]5(O)[C@@H]4CC[C@]3(O)C2)[C@@H]1O` (some centres not stated): the Kd is > 4 mM (inactive).

Turning to `COc1c2c(cc3occ(-c4ccc5c(c4)OCO5)c(=O)c13)OC(C)(C)C=C2`, the Kd is > 4 mM (inactive).

With `CC(C)NC(=O)c1cc(-n2cnnc2)ccc1Cl`, the Kd is > 4 mM (inactive).

Turning to `NC(=O)Cn1cnc(-c2ccc(F)cc2)c1`, the Kd is > 4 mM (inactive).

For the compound `Cc1ccc(C(O)c2nccn2C)o1` (configuration not stated), the Kd was > 4 mM (inactive).

For the compound `CC(=O)Nc1ccc(C(=O)N2CCOCC2)cc1Cl`, the Kd was > 4 mM (inactive).

With `NC(=O)C1CCN(C(=S)c2cccs2)CC1`, the Kd was > 4 mM (inactive).

In the case of `COC(=O)c1ccccc1N(C)S(C)(=O)=O`, the Kd was > 4 mM (inactive).

Take `CC(C)Oc1ccc(C2CC(=O)NNC2=O)cc1` (configuration not stated): the Kd was > 4 mM (inactive).

As for `O=C(c1ccncc1)N1CCN(C(=O)c2ccncc2)CC1`, the Kd was > 4 mM (inactive).

For `O=C(NC(=S)NCCO)c1ccccc1`, the Kd is > 4 mM (inactive).

As to `Cc1onc(-c2ccc(F)cc2)c1C(=O)O`, the Kd was > 4 mM (inactive).

`O=C(O)c1c[nH]c2ccccc12`: the Kd is > 4 mM (inactive).

With `COc1nc(C)ccc1-c1noc(-c2ccncc2)n1`, the Kd is > 4 mM (inactive).

On to `Nc1ccc2c(c1)OCO2`, for which the Kd is > 4 mM (inactive).

With `NC(C(=O)O)C(O)C(=O)O` (configuration not stated), the Kd was > 4 mM (inactive).

For `Cc1nn(C)c(Cl)c1S(=O)(=O)N1CCOCC1`, the Kd was > 4 mM (inactive).

On to `O=P(c1ccccc1)(c1ccccc1)C1CCOCC1`, for which the Kd is > 4 mM (inactive).

Consider `OCc1ccc(-n2ccnc2)cc1`, for which the Kd is > 4 mM (inactive).

On to `CCOc1ccc(C(=O)c2ccncc2)cc1`, for which the Kd is > 4 mM (inactive).

Regarding `Cc1ncoc1C(=O)Nc1ccccc1C(N)=O`, the Kd is > 4 mM (inactive).

Take `CC(O)c1ccc(C(C)O)cc1` (configuration not stated): the Kd was > 4 mM (inactive).

Take `COC(=O)c1ccccc1C`: the Kd was > 4 mM (inactive).

Take `CCn1ncc(Cl)c1C(=O)Nc1ccncc1`: the Kd was > 4 mM (inactive).

With `COc1cccc(-c2nn(-c3ccccc3)cc2CO)c1`, the Kd was > 4 mM (inactive).

Regarding `OC[C@@H](O)[C@@H](O[C@@H]1O[C@H](CO)[C@@H](O)[C@H](O)[C@H]1O)[C@H](O)[C@@H](O)CO`, the Kd is > 4 mM (inactive).

Consider `O=C(c1ccco1)N1C(=O)c2cccc3cccc1c23`, for which the Kd is > 4 mM (inactive).

As for `CS(=O)(=O)c1ccc(N)cc1`, the Kd is > 4 mM (inactive).

Consider `COc1cc2c(cc1OC)[C@@H]1C(=O)c3ccc4c(c3O[C@@H]1CO2)C=CC(C)(C)O4`, for which the Kd was > 4 mM (inactive).

On to `CC(=O)Nc1ccc(NC(=O)/C=C\C(=O)O)cc1`, for which the Kd was > 4 mM (inactive).

With `COc1ccc(NC(=O)C(N)=O)cc1Cl`, the Kd is > 4 mM (inactive).

Consider `COc1ccc(NC2=NCC(C)S2)cc1` (configuration not stated), for which the Kd was > 4 mM (inactive).

On to `CN1CCN(C(=O)C2CCCNC2)CC1` (configuration not stated), for which the Kd is > 4 mM (inactive).

As to `CSc1n[nH]c(NCc2ccccc2)n1`, the Kd was > 4 mM (inactive).

With `CC(C)[C@@H]1CC[C@@H](C)C[C@H]1OC(=O)c1ccccc1`, the Kd is > 4 mM (inactive).

As to `N#CCSc1nc(-c2ccccc2)cs1`, the Kd is > 4 mM (inactive).

Take `CC(=O)N(c1ccccc1)C1C=CS(=O)(=O)C1` (configuration not stated): the Kd is > 4 mM (inactive).

Take `CCS(=O)(=O)N1CCN(c2ccccc2F)CC1`: the Kd was > 4 mM (inactive).

With `Nc1nnc(SCc2ccc(F)cc2)s1`, the Kd is > 4 mM (inactive).

In the case of `CCOc1ccc(C(=O)c2ccc(O)c(O)c2O)cc1`, the Kd was > 4 mM (inactive).

Take `C=CCc1ccc2c(c1)OCO2`: the Kd is > 4 mM (inactive).

As to `COc1ccccc1C(=O)NC1CCN(C)CC1`, the Kd is > 4 mM (inactive).

For the compound `CN(Cc1nc2ccccc2n1C)C(=O)c1cccs1`, the Kd was > 4 mM (inactive).

For the compound `O=C(O)CCn1c(=O)oc2ccccc21`, the Kd is > 4 mM (inactive).

In the case of `Cc1cc(NC(=O)CS(=O)(=O)c2ccccc2)no1`, the Kd was > 4 mM (inactive).

Regarding `Nc1cncc(C(=O)O)c1`, the Kd is > 4 mM (inactive).

Consider `Cn1nc(C(=O)Nc2cccnc2)c2ccccc2c1=O`, for which the Kd was > 4 mM (inactive).

On to `C=C1CCC(C2CC(=O)OC2=O)C(=O)CCC2C1CC2(C)C` (configuration not stated), for which the Kd is > 4 mM (inactive).

In the case of `CC(=O)O[C@H]1C[C@@H](OC(C)=O)C(C)(C)C2CC(=O)[C@]3(C)C(CC[C@@]4(C)[C@H](c5ccoc5)OC(=O)[C@H]5O[C@]543)[C@]21C` (some centres not stated), the Kd was > 4 mM (inactive).

As for `Cc1noc(C)c1C(=O)Nc1sc(C)c(C)c1C#N`, the Kd was > 4 mM (inactive).

Take `CCOC(=O)c1c(C)[nH]c2ccc(O)cc12`: the Kd was > 4 mM (inactive).

As for `CC(=O)NC(=S)Nc1nc2ccccc2n1C(C)=O`, the Kd is > 4 mM (inactive).

On to `O=C(O)CCN1CCOCC1`, for which the Kd is > 4 mM (inactive).

In the case of `O=c1cnnc(NCc2ccc(F)cc2)[nH]1`, the Kd is > 4 mM (inactive).

Regarding `Cn1c(O)c(/C=C2\C=CC=N2)c(=O)[nH]c1=O`, the Kd is > 4 mM (inactive).

In the case of `COc1ccc(-c2coc3cc(O)ccc3c2=O)cc1`, the Kd was > 4 mM (inactive).

In the case of `O=C(O)CCCc1nc2ccccc2s1`, the Kd is > 4 mM (inactive).

Consider `O=c1c[n+]([O-])c2ccccc2n1OCc1ccccn1`, for which the Kd is > 4 mM (inactive).

Consider `Nc1cc(N)nc(SCc2ccccc2)n1`, for which the Kd was > 4 mM (inactive).

For `Cn1c(SCC(=O)NCCO)nc2ccccc2c1=O`, the Kd was > 4 mM (inactive).

For `COC(=O)c1ccc(Cl)c(NC(C)=O)c1`, the Kd is > 4 mM (inactive).

As to `NC(=O)CSc1nc2ncnc(N)c2[nH]1`, the Kd is > 4 mM (inactive).

Take `O=c1c(O)c(-c2ccc(O)c(O)c2)oc2cc(O)ccc12`: the Kd was > 4 mM (inactive).

For the compound `O=Cc1c(N2CCOCC2)nc2ccccn2c1=O`, the Kd is > 4 mM (inactive).

With `COc1ccccc1-c1noc(-c2ccco2)n1`, the Kd was > 4 mM (inactive).

Consider `Nc1cccc(NC(=O)c2cccs2)c1`, for which the Kd is > 4 mM (inactive).

On to `CC(=O)Nc1ccc2c(c1)n(C)c(=O)n2C`, for which the Kd is > 4 mM (inactive).

On to `CS(=O)(=O)c1nncn1-c1ccccc1`, for which the Kd is > 4 mM (inactive).

As to `Cc1nn(-c2ccccc2)nc1CN`, the Kd is > 4 mM (inactive).

As for `CC(=O)Nc1c(Cl)cnn(-c2ccccc2)c1=O`, the Kd was > 4 mM (inactive).

Regarding `O=C(O)C12CC3CC(CC(O)(C3)C1)C2`, the Kd was > 4 mM (inactive).

Turning to `COc1cc2c(cc1O)[C@@H](Cc1ccc(O)cc1)[N+](C)(C)CC2`, the Kd was > 4 mM (inactive).

With `O=C(O)CCNc1n[nH]c(=O)[nH]c1=O`, the Kd was > 4 mM (inactive).

Turning to `COC(=O)C[C@H]1C(C)(C)C(=O)[C@@H]2CC3=C4CC(=O)O[C@@H](c5ccoc5)[C@]4(C)CCC3C1(C)C2=O` (some centres not stated), the Kd is > 4 mM (inactive).

In the case of `Cc1occc1C(=O)NCc1ccccn1`, the Kd is > 4 mM (inactive).

Regarding `Cc1sc2nc(NCCO)[nH]c(=O)c2c1C`, the Kd is > 4 mM (inactive).

`CC(=O)N1CCn2c3c(c(=O)c4cc(C)ccc42)CCC31` (configuration not stated): the Kd was > 4 mM (inactive).

Regarding `NC(=O)CC1Nc2cccc3cccc(c23)NC1=O` (configuration not stated), the Kd is > 4 mM (inactive).

`COC(=O)[C@]1(C)CCC[C@]2(C)c3ccc(C(C)C)cc3C(=O)CC12` (some centres not stated): the Kd was > 4 mM (inactive).

Regarding `O=S1(=O)C=CC(N2CCCCC2)C1` (configuration not stated), the Kd is > 4 mM (inactive).

`[O-][n+]1c2ccccc2[n+]([O-])c2cc(O)ccc21`: the Kd is > 4 mM (inactive).

As to `CC(C)(C#N)O[C@@H]1O[C@H](CO)[C@@H](O)[C@H](O)[C@H]1O`, the Kd was > 4 mM (inactive).

For the compound `S=c1nc[nH]c2c1cnn2-c1ccccc1`, the Kd is > 4 mM (inactive).

With `O=C(O)CSc1nnc(-c2cccs2)o1`, the Kd was > 4 mM (inactive).

For the compound `CC1=NN(c2ccc(N)cc2)C(=O)C1`, the Kd was > 4 mM (inactive).

`C=C[C@](C)(O)CCC=C(C)C`: the Kd was > 4 mM (inactive).

Consider `COc1cc2c(cc1O)CCNC2C` (configuration not stated), for which the Kd is > 4 mM (inactive).

As for `O=C(c1ccc(N2CCNCC2)cc1)c1cccnc1`, the Kd was > 4 mM (inactive).

For the compound `CC1(C)C(=O)CC[C@@]2(C)C1C[C@@H](O)[C@@]1(C)C3=CC(=O)O[C@@H](c4ccoc4)[C@]3(C)CCC21` (some centres not stated), the Kd is > 4 mM (inactive).

As for `O=C(CS(=O)(=O)c1ccccc1)Nc1nccs1`, the Kd was > 4 mM (inactive).

Turning to `Cc1cc(C)nc(/N=C(/N)Nc2cccc(F)c2)n1`, the Kd was > 4 mM (inactive).

Consider `Oc1ccc(C(=S)N2CCCCC2)cc1Cl`, for which the Kd is > 4 mM (inactive).

With `O=c1[nH]c(=O)c2[nH]cnc2[nH]1`, the Kd is > 4 mM (inactive).

Consider `CCOC(=O)c1c(-c2ccncc2)csc1N`, for which the Kd was > 4 mM (inactive).

Take `CN(C)C(=O)c1ccccc1-c1ccccc1`: the Kd was > 4 mM (inactive).

Turning to `O=c1c(O)c(-c2ccccc2)oc2ccc3occc3c12`, the Kd is > 4 mM (inactive).

Turning to `O=c1c2c(nc3nc(Cc4ccccc4)[nH]n13)CCC2`, the Kd is > 4 mM (inactive).

As for `Cc1ccc(S(C)(=O)=O)s1`, the Kd was > 4 mM (inactive).

On to `Cc1ccc(/C=C2/NC(=S)NC2=O)s1`, for which the Kd is > 4 mM (inactive).

Regarding `COC(=O)c1ccc2nccnc2c1`, the Kd is > 4 mM (inactive).

As to `CC(=O)Nc1nc(C)nc(-c2ccccc2)c1C(C)=O`, the Kd is > 4 mM (inactive).
